Assay results: PubChem BioAssay AID296 (DTP/NCI, 2004)
“And” between values parts separate entries of the source, which are not always exact repeats. Equal values may be shown once. Inconclusive results are not listed.

System: MX-1 breast xenograft, nude mice, tumor weight T/C
Assay: NCI In Vivo Anticancer Drug Screen. Data for tumor model Human Mammary Carcinoma MX-1 Xenograft (intrarenal inoculation) in NU/NU Swiss (nude) mice
Settings: endpoint: mean tumor weight change, higher = larger tumour
Outline: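 Activity is given as a ratio, with each measurement in the compound-treated arm divided by the matching measurement in vehicle-dosed controls. Tumour size or survival serves as the measured parameter.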

[1] = dose: 300.0 mg/kg/injection, schedule: Q04DX003 (sc), vehicle: Klucel (hydroxypropylcellulose) (HPC)
[2] = dose: 600.0 mg/kg/injection, schedule: Q04DX003 (sc), vehicle: Klucel (hydroxypropylcellulose) (HPC)
[3] = dose: 1200.0 mg/kg/injection, schedule: Q04DX003 (sc), vehicle: Klucel (hydroxypropylcellulose) (HPC)
[4] = dose: 50.0 mg/kg/injection, schedule: Q01DX010 (sc), vehicle: saline with Tween-80
[5] = dose: 100.0 mg/kg/injection, schedule: Q01DX010 (sc), vehicle: saline with Tween-80
[6] = dose: 200.0 mg/kg/injection, schedule: Q01DX010 (sc), vehicle: saline with Tween-80
[7] = dose: 400.0 mg/kg/injection, schedule: Q01DX010 (sc), vehicle: saline with Tween-80
[8] = dose: 150.0 mg/kg/injection, schedule: Q04DX003 (sc), vehicle: saline
[9] = dose: 300.0 mg/kg/injection, schedule: Q04DX003 (sc), vehicle: saline
[10] = dose: 600.0 mg/kg/injection, schedule: Q04DX003 (sc), vehicle: saline
[11] = dose: 6.0 mg/kg/injection, schedule: Q04DX003 (sc), vehicle: Klucel (hydroxypropylcellulose) (HPC)
[12] = dose: 300.0 mg/kg/injection, schedule: Q04DX003 (sc), vehicle: saline with Tween-80
[13] = dose: 600.0 mg/kg/injection, schedule: Q04DX003 (sc), vehicle: saline with Tween-80
[14] = dose: 2400.0 mg/kg/injection, schedule: Q04DX003 (sc), vehicle: saline with Tween-80
[15] = dose: 800.0 mg/kg/injection, schedule: Q01DX010 (sc), vehicle: saline with Tween-80
[16] = dose: 1200.0 mg/kg/injection, schedule: Q04DX003 (sc), vehicle: saline

C1CC[N-]CC1.[Cl][Pt+2][Cl].[NH-]C1CC1
T/C (dose: 25.0 mg/kg/injection, schedule: Q04DX003 (sc), vehicle: water): 60 % of control
T/C (dose: 50.0 mg/kg/injection, schedule: Q04DX003 (sc), vehicle: Klucel (hydroxypropylcellulose) (HPC)): 34 % of control and 55 % of control
T/C (dose: 50.0 mg/kg/injection, schedule: Q04DX003 (sc), vehicle: water): 11 % of control
T/C (dose: 100.0 mg/kg/injection, schedule: Q04DX003 (sc), vehicle: water): -83 % of control

CC(=O)C(=O)O.CC(=O)C(=O)O.[NH-]C1CCCCC1[NH-].[Pt+2] (configuration not stated)
T/C (dose: 6.25 mg/kg/injection, schedule: Q04DX003 (ip), vehicle: other): 46 % of control
T/C (dose: 12.5 mg/kg/injection, schedule: Q04DX003 (ip), vehicle: other): 74 % of control
T/C (dose: 25.0 mg/kg/injection, schedule: Q04DX003 (ip), vehicle: other): 45 % of control
T/C (dose: 50.0 mg/kg/injection, schedule: Q04DX003 (ip), vehicle: other): 12 % of control
T/C (dose: 100.0 mg/kg/injection, schedule: Q04DX003 (ip), vehicle: other): 9 % of control

C[C@]12CC[C@@H]3c4ccc(O)cc4CC[C@H]3[C@@H]1CC[C@@H]2O
T/C (dose: 150.0 mg/kg/injection, schedule: Q04DX003 (sc), vehicle: Klucel (hydroxypropylcellulose) (HPC)): 101 % of control
T/C [1]: 101 % of control
T/C [2]: 101 % of control
T/C [3]: 104 % of control

O=CC=O
T/C [4]: 109 % of control
T/C [5]: 74 % of control
T/C [6]: 100 % of control
T/C [7]: 60 % of control

c1ccc2c(c1)[As]=c1ccccc1=[As]2 (configuration not stated)
T/C [8]: 116 % of control
T/C [9]: 118 % of control
T/C [10]: 99 % of control

C[C@H](N)C(=O)N[C@@H]1[C@H]2C(=C(O)C[C@@H](O)[C@@H]2O)C(=O)O[C@]1(C)C(Cl)Cl
T/C (dose: 1.5 mg/kg/injection, schedule: Q04DX003 (sc), vehicle: Klucel (hydroxypropylcellulose) (HPC)): 153 % of control
T/C [11]: 92 % of control

N/C=N/O
T/C (dose: 100.0 mg/kg/injection, schedule: Q01DX010 (sc), vehicle: saline): 107 % of control
T/C (dose: 200.0 mg/kg/injection, schedule: Q01DX010 (sc), vehicle: saline): 53 % of control
T/C (dose: 400.0 mg/kg/injection, schedule: Q01DX010 (sc), vehicle: saline): 81 % of control

Cc1cc(O)c(N=Nc2ccc(C(=O)O)cc2)cc1C
T/C [12]: 123 % of control
T/C [13]: 124 % of control
T/C [14]: 92 % of control

CC1C=NNC1=O (configuration not stated)
T/C [5]: 123 % of control
T/C [7]: 62 % of control
T/C [15]: 60 % of control

CN(C)C(=O)c1cccc(COc2ccc(N3C(N)=NC(N)=NC3(C)C)cc2Cl)c1
T/C (dose: 6.25 mg/kg/injection, schedule: Q01DX010 (sc), vehicle: saline): 104 % of control
T/C (dose: 12.5 mg/kg/injection, schedule: Q01DX010 (sc), vehicle: saline): 118 % of control
T/C (dose: 25.0 mg/kg/injection, schedule: Q01DX010 (sc), vehicle: saline): 49 % of control

Nc1nc(N)c(N=O)c(Nc2ccc(Br)cc2)n1
T/C [12]: 42 % of control
T/C [13]: 42 % of control
T/C (dose: 1200.0 mg/kg/injection, schedule: Q04DX003 (sc), vehicle: saline with Tween-80): 38 % of control
T/C [14]: 40 % of control

CC(=O)OCC1OC(OC(C)=O)C(NC(=O)N(CCCl)N=O)C(OC(C)=O)C1OC(C)=O (configuration not stated)
T/C [11]: 95 % of control
T/C (dose: 24.0 mg/kg/injection, schedule: Q04DX003 (sc), vehicle: Klucel (hydroxypropylcellulose) (HPC)): 77 % of control

C1CCC2[N-]CC3CCCCC3[N-]CC3CCCCC3[N-]CC3CCCCC3[N-]CC2C1.[Cu] (configuration not stated)
T/C (dose: 3.13 mg/kg/injection, schedule: Q01DX010 (sc), vehicle: Klucel (hydroxypropylcellulose) (HPC)): 47 % of control
T/C (dose: 6.25 mg/kg/injection, schedule: Q01DX010 (sc), vehicle: Klucel (hydroxypropylcellulose) (HPC)): 193 % of control
T/C (dose: 12.5 mg/kg/injection, schedule: Q01DX010 (sc), vehicle: Klucel (hydroxypropylcellulose) (HPC)): 178 % of control
T/C (dose: 25.0 mg/kg/injection, schedule: Q01DX010 (sc), vehicle: Klucel (hydroxypropylcellulose) (HPC)): 113 % of control

OCCO
T/C (dose: 8.0 % in 0.5 ml injection vol, schedule: Q04DX003 (sc), vehicle: water): 69 % of control
T/C (dose: 16.0 % in 0.5 ml injection vol, schedule: Q04DX003 (sc), vehicle: water): 87 % of control

O=C(N/N=C\c1cc(Br)cc(Br)c1O)N/N=C/c1cc(Br)cc(Br)c1O
T/C [7]: 72 % of control
T/C [15]: 61 % of control

C=C[Si]12OCCN(CCO1)CCO2
T/C [1]: 87 % of control
T/C [2]: 79 % of control
T/C [3]: 106 % of control
T/C (dose: 2400.0 mg/kg/injection, schedule: Q04DX003 (sc), vehicle: Klucel (hydroxypropylcellulose) (HPC)): 89 % of control

O=CN(SSN(C=O)C1CCCCC1)C1CCCCC1
T/C [4]: 69 % of control
T/C [5]: 83 % of control
T/C [6]: 53 % of control
T/C [7]: 34 % of control

OCC1OC(n2cnc3c(Cl)ncnc32)C(O)C1O (configuration not stated)
T/C [9]: 74 % of control
T/C [10]: 84 % of control
T/C [16]: 80 % of control

CC12CCC3C(CCC4CC(OC(=O)Cc5ccc(N(CCCl)CCCl)cc5)CCC43C)C1CCC(=O)N2 (configuration not stated)
T/C (dose: 25.0 mg/kg/injection, schedule: Q04DX003 (sc), vehicle: saline with Tween-80): 3 % of control
T/C (dose: 400.0 mg/kg/injection, schedule: Q04DX003 (sc), vehicle: saline with Tween-80): -82 % of control

CC[N+](CC)(CC)CC
T/C (dose: 1.5 mg/kg/injection, schedule: Q01DX010 (sc), vehicle: saline with Tween-80): 65 % of control
T/C (dose: 3.0 mg/kg/injection, schedule: Q01DX010 (sc), vehicle: saline with Tween-80): 103 % of control

COc1cccc2c1C(=O)c1c(O)c3c(c(O)c1C2=O)C[C@@](O)(/C(C)=N/NC(=O)c1ccccc1)C[C@@H]3OC1CC(N)C(O)C(C)O1 (some centres not stated)
T/C (dose: 18.75 mg/kg/injection, schedule: Q04DX003 (sc), vehicle: water): 73 % of control
T/C (dose: 37.5 mg/kg/injection, schedule: Q04DX003 (sc), vehicle: water): 25 % of control

Nc1ncnc2c1ncn2C1C=C(CO)C(O)C1O (configuration not stated)
T/C (dose: 3.75 mg/kg/injection, schedule: Q04DX003 (sc), vehicle: saline): 88 % of control
T/C (dose: 7.5 mg/kg/injection, schedule: Q04DX003 (sc), vehicle: saline): 75 % of control
T/C (dose: 15.0 mg/kg/injection, schedule: Q04DX003 (sc), vehicle: saline): 64 % of control

Nc1ncn(C2OC(CO)C(O)C2O)c(=O)n1 (configuration not stated)
T/C (dose: 0.38 mg/kg/injection, schedule: Q01DX010 (sc), vehicle: saline): 69 % of control
T/C (dose: 0.75 mg/kg/injection, schedule: Q01DX010 (sc), vehicle: saline): 58 % of control and 68 % of control
T/C (dose: 1.5 mg/kg/injection, schedule: Q01DX010 (sc), vehicle: saline): 25 % of control
T/C (dose: 2.5 mg/kg/injection, schedule: Q04DX003 (sc), vehicle: saline): 50 % of control
T/C (dose: 20.0 mg/kg/injection, schedule: Q04DX003 (sc), vehicle: saline): 6 % of control and 14 % of control
T/C [8]: 8 % of control
T/C (dose: 200.0 mg/kg/injection, schedule: Q04DX003 (sc), vehicle: saline): 52 % of control
T/C (dose: 200.0 mg/kg/injection, schedule: Q04DX003 (sc), vehicle: suspension in saline): 5 % of control and 7 % of control
T/C [9]: 7 % of control
T/C (dose: 400.0 mg/kg/injection, schedule: Q04DX003 (sc), vehicle: saline): 15 % of control
T/C [10]: 2 % of control
T/C (dose: 800.0 mg/kg/injection, schedule: Q04DX003 (sc), vehicle: saline): 5 % of control
T/C [16]: -29 % of control
T/C (dose: 1600.0 mg/kg/injection, schedule: Q04DX003 (sc), vehicle: saline): 2 % of control
T/C (dose: 1600.0 mg/kg/injection, schedule: Q04DX003 (sc), vehicle: suspension in saline): 15 % of control

O=c1[nH]cnc2[nH]ncc12
T/C (dose: 150.0 mg/kg/injection, schedule: Q04DX003 (sc), vehicle: suspension in saline): 46 % of control
T/C (dose: 300.0 mg/kg/injection, schedule: Q04DX003 (sc), vehicle: suspension in saline): 44 % of control
T/C (dose: 600.0 mg/kg/injection, schedule: Q04DX003 (sc), vehicle: suspension in saline): 119 % of control
T/C (dose: 1200.0 mg/kg/injection, schedule: Q04DX003 (sc), vehicle: suspension in saline): 112 % of control
